# Paper PMC4148842 (The Journal of Biological Chemistry, 2014)
# Entries after “also recorded” stand apart in the source; their conditions may differ.
# What was measured:
# MMP-13(E204A) = target: T1, MMP-13(E204A) (Homo sapiens, UniProt P45452, E223A); assay: MMP-13 Toolkit SPBA, active-site mutant MMP-13(E204A); format: binding; conditions: 83 nM, coating 10 μg/ml, 1 h, 24 °C
# T1 construct: made in house; host or cells: Escherichia coli BL21(DE3)
# Excerpt: (§1) Recombinant proMMP-13 was expressed and purified as previously described ([18]). […] ProMMP-13(E204A) was expressed in Escherichia coli BL21(DE3), refolded, purified, and activated essentially as described for proMMP-1(E200A) ([19], [20]).
# (§2) Unless stated otherwise, all peptides were triple-helical, a structure maintained by the flanking sequences, GPC(GPP)5- and -(GPP)5-GPC-amide, at their N and C terminus, respectively. For simplicity, peptides are referred to by their specific guest sequence. A negative control peptide, (GPC-(GPP)10-GPC-amide) is referred to as GPP10.
# (§3) Immulon 2 HB 96-well plates (Nunc, Langenselbold, Germany) were coated with Collagen Toolkit or other peptides, fibrillar or monomeric collagen at a saturating concentration (10 μg/ml in 0.01 M acetic acid) overnight at 4 °C. Fibrous bovine type I collagen was a gift from Ethicon Corporation (Somerville, NJ). Monomeric collagen was obtained from Devro (Bathurst, Australia). All further incubations were performed at 24 °C for 1 h unless otherwise stated. The wells were washed three times with adhesion buffer (1 mg/ml BSA in Tris-buffered saline (TBS) containing 0.1% (v/v) Tween-20) between each incubation step. […] Binding curves were fitted using Prism 5.0 software (GraphPad, San Diego), allowing total binding (Bmax) and equilibrium dissociation constant (KD) to be determined. […]
# MMP-13 GST-Hpx domain = assay: MMP-13 Toolkit SPBA, isolated GST-Hpx domain; format: binding; conditions: Hpx 83 nM, anti-GST detection, 1 h, 24 °C
# Excerpt: as §1, §2, §3
# MMP-13 [1] = target: T2, MMP-13 (Homo sapiens, UniProt P45452); assay: MMP-13 Toolkit SPBA, pro and active forms, wild type and E204A taken together; format: binding; conditions: for binding of MMP-13 preparations: all or several MMP-13 preparations, SPBA
# Excerpt: as §1, §2
# Immulon 2 HB 96-well plates (Nunc, Langenselbold, Germany) were coated with Collagen Toolkit or other peptides, fibrillar or monomeric collagen at a saturating concentration (10 μg/ml in 0.01 M acetic acid) overnight at 4 °C. Fibrous bovine type I collagen was a gift from Ethicon Corporation (Somerville, NJ). Monomeric collagen was obtained from Devro (Bathurst, Australia). All further incubations were performed at 24 °C for 1 h unless otherwise stated. The wells were washed three times with adhesion buffer (1 mg/ml BSA in Tris-buffered saline (TBS) containing 0.1% (v/v) Tween-20) between each incubation step. The wells were blocked with 50 mg/ml BSA in TBS prior to the addition of MMP at a concentration of 83 nM (unless otherwise stated) in adhesion buffer. […] Rabbit HRP-linked anti-GST (GE Healthcare; dilution 1:10,000) was used to detect GST-Hpx. […] Binding curves were fitted using Prism 5.0 software (GraphPad, San Diego), allowing total binding (Bmax) and equilibrium dissociation constant (KD) to be determined.
# MMP-13 [2] = conditions: cited from earlier work
# Excerpt: Collagenolytic MMPs are members of the zinc-dependent peptidase family whose tightly regulated proteolytic activities play a pivotal role in extracellular matrix homeostasis, cell migration and wound healing. […] The Cat and Hpx are thought to cooperate to recognize and bind to the cleavage site, in collagen D-period 4 (D4), three-quarters of the way along the tropocollagen molecule ([6], [7]). Binding of the Hpx is considered to facilitate local relaxation of the helix, allowing the Cat d ... || Comparison of the collagenase cleavage sites of the various fibrillar collagens with the sequences of the MMP-13-binding peptides provides a basis for their relative recognition and subsequent cleavage.
# MMP-13 [3] = target: T2, MMP-13; assay: MMP-13 Toolkit solid-phase binding assay (SPBA), wild type active MMP-13; design: made in house; host or cells: mouse myeloma cells; conditions: 1 h, 24 °C; for binding: wild type active MMP-13, 83 nM, coating 10 μg/ml
# Excerpt: as §1, §2
# Immulon 2 HB 96-well plates (Nunc, Langenselbold, Germany) were coated with Collagen Toolkit or other peptides, fibrillar or monomeric collagen at a saturating concentration (10 μg/ml in 0.01 M acetic acid) overnight at 4 °C. Fibrous bovine type I collagen was a gift from Ethicon Corporation (Somerville, NJ). […] All further incubations were performed at 24 °C for 1 h unless otherwise stated. The wells were washed three times with adhesion buffer (1 mg/ml BSA in Tris-buffered saline (TBS) containing 0.1% (v/v) Tween-20) between each incubation step. […] Rabbit HRP-linked anti-GST (GE Healthcare; dilution 1:10,000) was used to detect GST-Hpx. […] Binding curves were fitted using Prism 5.0 software (GraphPad, San Diego), allowing total binding (Bmax) and equilibrium dissociation constant (KD) to be determined.
# FIGURE 1. […] For reference, collagen D-periods corresponding to these peptides are shown as gray bars below, and the collagenase cleavage site indicated by an arrow.
# [4] = system: Cat domain of MMP-13 (Δ249–451); assay: MMP-13 Toolkit SPBA, isolated Cat domain; format: binding; conditions: data not shown for Toolkit II
# Protocol: as §1
# Immulon 2 HB 96-well plates (Nunc, Langenselbold, Germany) were coated with Collagen Toolkit or other peptides, fibrillar or monomeric collagen at a saturating concentration (10 μg/ml in 0.01 M acetic acid) overnight at 4 °C. Fibrous bovine type I collagen was a gift from Ethicon Corporation (Somerville, NJ). Monomeric collagen was obtained from Devro (Bathurst, Australia). All further incubations were performed at 24 °C for 1 h unless otherwise stated. The wells were washed three times with adhesion buffer (1 mg/ml BSA in Tris-buffered saline (TBS) containing 0.1% (v/v) Tween-20) between each incubation step. […] Binding curves were fitted using Prism 5.0 software (GraphPad, San Diego), allowing total binding (Bmax) and equilibrium dissociation constant (KD) to be determined.
# Proteins were C-terminally biotinylated using an EZ-Link® Micro Sulfo-NHS-Biotinylation Kit (Pierce) according to the manufacturer's instructions. Successful biotinylation was detected via Western blotting using an ultrasensitive Streptavidin-Peroxidase Polymer (Sigma).
# proMMP-1 = conditions: ref [7], [31]; cited from earlier work
# Excerpt: (§4) How can MMP-13 avoid this constraint? […] The effect is to move the collagen-binding S10′ pocket of M ...
# proMMP-9 = conditions: ref [32]; cited from earlier work
# Excerpt: as §4
# proMMP-3 = conditions: ref [32]; cited from earlier work
# Excerpt: as §4
substance,measurement,setting,value
"GPQG∼LAGQRGIVGLOGQRGER [44J, 21-residue peptide, P4 to P17′, parent of the Ala-scan]",A450 (adhesion),MMP-13(E204A); mean of four experiments,~0.8
same,A450 (adhesion),"MMP-13 GST-Hpx domain; coating 10 μg/ml, mean of four experiments",~0.4
same,binding of MMP-13 preparations,MMP-13 [1],"MMP-13(E204A) binding most strongly (A450 ∼0.8), then proMMP-13, then proMMP-13(E204A), then active MMP-13, and lastly the Hpx domain alone"
"GFOGLOGPS [44B, peptide containing only the missing triplets, GFOGLOGPS]",binding of MMP-13 preparations,MMP-13 [1],supported no binding
collagen II: preferred substrate for MMP-13,relative cleavage rate by MMP-13,"MMP-13 [2]; collagen II compared with collagens I and III, ref [3]",five times faster than collagen I; also recorded: six times faster than collagen III
same,cleavage site of MMP-13,"MMP-13 [2]; position within collagen II helical domain, ref [11], [12]",Gly^775–Leu^776; also recorded: Gly^778–Gln^779
"fibrillar type I collagen: Fibrous bovine type I collagen, a gift from Ethicon Corporation",A450 (adhesion),"MMP-13 [3]; wild type MMP-13 (active or pro form not stated for the numbers), 83 nM, plates coated 10 μg/ml, mean of four experiments",≥ 1.0
same,binding,MMP-13 GST-Hpx domain,bound fibrillar collagen I
same,Kd,"MMP-13 [1]; fibrillar collagen, MMP-13 preparations overall",~40 nM
same,binding,[4],"bound fibrillar collagen I, albeit weakly"
GCPP(GPPP)2GGPPPG-II-44 guest sequence -P(GPPP)2GGPPPGCPG-amide [linear peptide equivalent to II-44],binding,MMP-13 [3],unable to bind
same,binding of MMP-13 preparations,MMP-13 [1],negligible binding
"monomeric type I collagen: Monomeric collagen obtained from Devro (Bathurst, Australia)",binding,MMP-13 [3],much lower binding
same,binding,MMP-13(E204A),much lower binding
collagen,binding of MMP-13 preparations,MMP-13 [1],support firm adhesion of MMP-13 in both its active and pro- forms
same,binding,[4],able to recognize collagen; also recorded: bound weakly
same,binding of proMMP-1,proMMP-1,did not bind
same,binding of proMMP-9,proMMP-9,can bind collagen
same,binding of proMMP-3,proMMP-3,can bind collagen
